Patent US8993585B2, “Cyclic amine substituted pyrimidinediamines as PKC inhibitors” (Rigel Pharmaceuticals, Inc., priority 2007, dated 2015)

What was measured:
PKC epsilon = molecular target: T1, PKC epsilon (Homo sapiens, UniProt Q02156); test: PKC assay, fluorescence polarization (Example 2), PKC epsilon; assay type: biochemical; conditions: 5 μM ATP
T1 construct: purchased Upstate Biotechnologies, Temecula, CA 14-518
T1 sequence (Q02156 1-737): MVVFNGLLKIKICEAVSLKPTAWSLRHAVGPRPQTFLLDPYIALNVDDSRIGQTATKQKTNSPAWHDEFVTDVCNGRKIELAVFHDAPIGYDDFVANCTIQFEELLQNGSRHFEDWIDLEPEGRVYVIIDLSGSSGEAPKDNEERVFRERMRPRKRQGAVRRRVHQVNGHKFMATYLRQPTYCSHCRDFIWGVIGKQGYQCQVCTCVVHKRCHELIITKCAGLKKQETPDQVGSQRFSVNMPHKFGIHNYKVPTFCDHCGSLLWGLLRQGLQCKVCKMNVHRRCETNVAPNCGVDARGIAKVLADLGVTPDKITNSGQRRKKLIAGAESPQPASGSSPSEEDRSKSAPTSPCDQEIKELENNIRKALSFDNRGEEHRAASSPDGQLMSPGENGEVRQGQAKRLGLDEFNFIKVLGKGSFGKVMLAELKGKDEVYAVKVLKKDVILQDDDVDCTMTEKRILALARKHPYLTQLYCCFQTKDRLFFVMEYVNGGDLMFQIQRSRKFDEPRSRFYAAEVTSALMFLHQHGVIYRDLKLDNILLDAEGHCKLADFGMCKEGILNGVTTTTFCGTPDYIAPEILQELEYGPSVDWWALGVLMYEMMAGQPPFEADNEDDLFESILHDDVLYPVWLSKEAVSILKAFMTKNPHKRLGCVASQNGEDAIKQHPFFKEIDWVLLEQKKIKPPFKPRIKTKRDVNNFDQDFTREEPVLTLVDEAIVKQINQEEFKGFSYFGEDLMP
Method: The inhibition of PKC activity was measured by monitoring the production of phosphorylated peptide by fluorescence polarization at different concentrations of the inhibitor. Reactions were carried out in 96-well plate format with a total volume of 20 μL containing 20 mM HEPES, pH 7.4, 5 mM MgCl2, 0.2 mM CaCl2, 1 mM DTT, 0.02% Brij-35, 0.1 mg/mL phosphatidylserine, 0.02 mg/mL dioleoyl-sn-glycerol and 5 μM each of ATP and the peptide substrate. Compounds were first diluted serially in DMSO and then transferred to a solution containing the above concentrations of HEPES, MgCl2, CaCl2, DTT, and Brij-35 to yield 5× compound solutions in 2% DMSO, which was then added to the reaction solution. Reactions were initiated by the addition of PKC at a typical concentration as described in Table VI, and then allowed to incubate at room temperature for 20 min. At the end of this time, a combination of quench (EDTA) and detection (peptide tracer and antibody) reagents was added using the protocol of Invitrogen P2748.

PKC theta = molecular target: T2, PKC theta (Homo sapiens, UniProt Q04759); test: PKC assay, fluorescence polarization (Example 2), PKC theta; assay type: biochemical; conditions: 5 μM ATP
T2 construct: purchased Upstate Biotechnologies, Temecula, CA 14-444
T2 sequence (Q04759 whole entry): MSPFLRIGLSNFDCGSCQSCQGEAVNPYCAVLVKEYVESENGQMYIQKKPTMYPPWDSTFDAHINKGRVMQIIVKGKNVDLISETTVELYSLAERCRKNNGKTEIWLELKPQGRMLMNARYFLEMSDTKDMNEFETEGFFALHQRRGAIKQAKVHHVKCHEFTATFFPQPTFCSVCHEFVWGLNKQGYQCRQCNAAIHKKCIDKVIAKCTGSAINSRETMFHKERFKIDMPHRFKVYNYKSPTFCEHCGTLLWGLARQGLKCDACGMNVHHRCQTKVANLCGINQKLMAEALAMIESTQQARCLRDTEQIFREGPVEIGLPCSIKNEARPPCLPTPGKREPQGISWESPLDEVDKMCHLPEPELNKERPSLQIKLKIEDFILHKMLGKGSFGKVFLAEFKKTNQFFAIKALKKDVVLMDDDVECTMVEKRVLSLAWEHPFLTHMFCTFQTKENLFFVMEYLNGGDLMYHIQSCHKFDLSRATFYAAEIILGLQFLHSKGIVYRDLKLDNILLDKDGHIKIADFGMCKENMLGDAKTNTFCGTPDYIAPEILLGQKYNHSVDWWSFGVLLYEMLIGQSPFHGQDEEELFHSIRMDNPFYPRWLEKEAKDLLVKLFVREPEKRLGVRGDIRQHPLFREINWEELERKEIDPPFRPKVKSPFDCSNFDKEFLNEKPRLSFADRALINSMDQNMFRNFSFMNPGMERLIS
Outline: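 Phosphorylated peptide product detected by fluorescence polarization, with EDTA quench plus peptide tracer and antibody. Reaction in 20 mM HEPES pH 7.4, 5 mM MgCl2, 0.2 mM CaCl2, 1 mM DTT, 0.02% Brij-35, phosphatidylserine and dioleoyl-sn-glycerol, with 5 μM ATP and 5 μM peptide. Started with enzyme, 20 min at room temperature.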

Human primary T cells = test: IL-2 ELISA, Human Primary T Cell, Anti-CD3+CD28+ (Example 3); assay type: cell-based; conditions: Homo sapiens, T-cell, 24 h, anti-CD3+CD28 stimulation
Outline: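 IL-2 was read by ELISA after stimulation on wells pre-coated with 1 ug/ml αCD3 and 5 μg/ml αCD28. Before this, 100,000 human primary T cells per well spent 1 h at 37 °C with test compound in Yssel's medium. The counter-screen replaced antibody stimulation with PMA (0.5 ng/ml final) and ionomycin (0.1 uM final).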

| SMILES | IC50 (PKC epsilon) | IC50 (PKC theta) | IC50 (Human primary T cells) |
| --- | --- | --- | --- |
| CN1CCN(c2ccc(Nc3ncc(C#N)c(NC4CC(C)(C)N(C)C(C)(C)C4)n3)cc2Cl)CC1 [Compound I-101] | 131 nM | 5.51 nM | 94.6 nM |
| CN1C(C)(C)CC(Nc2nc(Nc3ccc(C#N)c(C#N)c3)ncc2F)CC1(C)C [Compound I-141] | 249 nM | 3.29 nM | 245 nM |
| COc1cc(Nc2ncc(C#N)c(NC3CC(C)(C)N(C)C(C)(C)C3)n2)cc(OC)c1 [Compound I-364] | 27.8 nM | 4.1 nM | 270 nM |
| CN1C(C)(C)CC(Nc2nc(Nc3cccc(C#N)c3)ncc2C#N)CC1(C)C [Compound I-97] | 175 nM | 1.58 nM | 289 nM |
| CN1C(C)(C)CC(Nc2nc(Nc3cccc(-c4ccoc4)c3)ncc2F)CC1(C)C [Compound I-105] | 154 nM | 26 nM | 221 nM |
| Cc1ccc(Nc2ncc(F)c(NC3CC(C)(C)N(C)C(C)(C)C3)n2)cc1C#N [Compound I-142] | 31 nM | 2.92 nM | 80.7 nM |
| COc1ccc(Nc2ncc(C#N)c(NC3CC(C)(C)N(C)C(C)(C)C3)n2)cc1-n1c(C)ccc1C [Compound I-376] | 935 nM | 0.4 nM | 260 nM |
| CN1C(C)(C)CC(Nc2nc(Nc3ccc(N4CCSCC4)c(C#N)c3)ncc2F)CC1(C)C [Compound I-199] | 9.58 nM | 2.88 nM | 135 nM |
| CN1C(C)(C)CC(Nc2nc(Nc3ccc(N4CCOCC4)c(C(F)(F)F)c3)ncc2F)CC1(C)C [Compound I-224] | 19 nM | 29.1 nM | 112 nM |
| CN1C(C)(C)CC(Nc2nc(Nc3ccc(N4CCCC4)c(C#N)c3)ncc2F)CC1(C)C [Compound I-200] | 41.9 nM | 1.11 nM | 185 nM |
| COc1cc(Nc2ncc(Cl)c(NC3CC(C)(C)N(C)C(C)(C)C3)n2)cc(OC)c1 [Compound I-340] | 15.6 nM | 2.81 nM | 159 nM |
| CN1C(C)(C)CC(Nc2nc(Nc3ccc(N4CCOCC4)c(OC(F)F)c3)ncc2F)CC1(C)C [Compound I-235] | 16.8 nM | 1.27 nM | 156 nM |
| COc1ccc(Nc2ncc(C#N)c(NC3CC(C)(C)N(C)C(C)(C)C3)n2)cc1OC(F)F [Compound I-366] | 89.6 nM | 1.71 nM | 122 nM |

Second part, the molecule after the results:

| IC50 (PKC epsilon) | IC50 (PKC theta) | IC50 (Human primary T cells) | SMILES |
| --- | --- | --- | --- |
| 49 nM | 6.3 nM | 350 nM | CSc1nnnn1-c1cccc(Nc2ncc(C(N)=O)c(NC3CC(C)(C)N(C)C(C)(C)C3)n2)c1 [Compound I-456] |
| 50 nM | 0.8 nM | 230 nM | Cc1ccc(Nc2ncc(C#N)c(NC3CC(C)(C)NC(C)(C)C3)n2)cc1-n1cnnn1 [Compound I-461] |
| 157 nM | 1.1 nM | 180 nM | COc1ccc(Nc2ncc(F)c(NC3CC(C)(C)NC(C)(C)C3)n2)cc1OC(F)F [Compound I-444] |
| 775 nM | 2.4 nM | 260 nM | CC1(C)CC(Nc2nc(Nc3ccc4c(c3)OCC(=O)N4CCF)ncc2C#N)CC(C)(C)N1 [II-171] |
| 13 nM | 3.3 nM | 80 nM | CSc1nnnn1-c1cccc(Nc2ncc(F)c(NC3CC(C)(C)NC(C)(C)C3)n2)c1 [Compound I-416] |
| 27.1 nM | 1.35 nM | 26.4 nM | CCN1C(=O)C(F)(F)Oc2cc(Nc3ncc(F)c(NC4CC(C)(C)N(C)C(C)(C)C4)n3)ccc21 [II-31] |
| 102 nM | 15.7 nM | 224 nM | CN1C(=O)C(C)(C)Oc2cc(Nc3ncc(F)c(NC4CC(C)(C)N(C)C(C)(C)C4)n3)ccc21 [II-34] |
| 115 nM | 3.2 nM | 250 nM | CCOc1ccc(Nc2ncc(C(N)=O)c(NC3CC(C)(C)N(C)C(C)(C)C3)n2)cc1-n1nnnc1CC [Compound I-420] |
